Read-outs that look alike come from different tables or passages of the source.
Assays:
[1] = tested on: patients with primary hypercholesterolemia and ≧2 additional risk factors for coronary artery disease; settings: Pearson et al. commentary, cited from earlier work
[2] = tested on: patients with primary hypercholesterolemia and ≧2 additional risk factors for coronary artery disease; assay: Multinational randomized double-blind placebo-controlled trial: effects on plasma lipids; assay type: in vivo, human; settings: for LDL cholesterol, Mean ± SEM: calculated (Friedewald)
Experimental: J. Cardiology Vol. 72, Nov. 1, 1993, 1031-1036. […] Lipid analyses were performed at local laboratories and a central laboratory. […] The LDL cholesterol concentration was calculated using the Friedewald equation converted to mmol/liter: […] To assess the comparability of treatment groups, baseline values and demographic characteristics for all randomized patients were summarized for each treatment group by descriptive statistics. The primary efficacy variables were the serum lipids analyzed at local laboratories at weeks 0, 6, 13 and 26. All values were transformed to natural logarithms for the analysis. Geometric means were used to summarize lipid values by treatment group at each visit. Treatment groups were compared by analysis of covariance of change from baseline in transformed values with baseline as a covariate.

[3] = tested on: patients with primary hypercholesterolemia and ≧2 additional risk factors for coronary artery disease; settings: for Sudden cardiac death, number / Myocardial infarction (fatal and nonfatal), number: n = 530; for Myocardial infarction (fatal and nonfatal), number: p = 0.031 vs placebo
Experimental: This example describes a large multinational study, “Effects of Pravastatin in Patients with Serum Total Cholesterol Levels from 5.2 to 7.8 mmol/liter (200 to 300 mg/dl) Plus Two Additional Atherosclerotic Risk Factors,” The Pravastatin Multinational Study Group for Cardiac Risk Patients, reported in Am. J. Cardiology Vol. 72, Nov. 1, 1993, 1031-1036. The study was designed to examine the efficacy and safety of pravastatin, together with diet modification and advice on smoking, in patients with primary hypercholesterolemia and ≧2 additional risk factors for coronary artery disease (CAD).
(§1) The efficacy and long-term safety of pravastatin in hypercholesterolemic patients were investigated in this multicenter, randomized, double-blind placebo-controlled trial. After dietary stabilization and recommendations for lifestyle modification during a 6-week placebo lead-in period, patients were randomized to receive pravastatin 20 mg or placebo at bedtime. After 13 weeks, patients who responded (defined as a decrease in total cholesterol level by >15% from baseline or to <5.2 mmol/liter [200 mg/dl]) to treatment continued on the same study medication for 13 additional weeks. […] Compliance with dietary instructions and other lifestyle counseling were periodically assessed. After completing the initial 26-week period, patients were given the option to continue in an additional 26-week double-blind phase and, following the first 52 weeks, a final 26-week period that was open-label for pravastatin in patients originally assigned to that treatment group. Additional lipid-lowering medications, except other 3-hydroxy-3-methylglutaryl coenzyme A reductase inhibitors and fibrates, could be added to patients not meeting treatment goals at the end of the first 26 weeks. Fibrates could be added in the open-label period of the study in patients originally assigned placebo.
The protocol was approved by each local ethics committee, and patients gave informed consent before randomization. The study population was to be limited to men and postmenopausal or surgically sterile women 20 to 69 years old. At entry, patients were to have a serum total cholesterol concentration between 5.2 and 7.8 mmol/liter (200 and 300 mg/dl) despite dietary intervention as well as ≧2 additional risk factors for CAD as defined in the protocol (male gender, systemic hypertension, cigarette smoking, family history of CAD, prior myocardial infarction, or history of angina pectoris). Exclusion criteria included (1) a history of homozygous familial hypercholesterolemia; (2) types I, III, IV or V hyperlipoproteinemia; (3) significant metabolic, renal, hepatic or endocrine disease; (4) history of drug abuse; or (5) obesity (>40% above ideal body weight). Patients were also excluded if, within 8 weeks of randomization, they were taking cortico-steroids immunosuppressive drugs, investigational drugs, androgens, or estrogens and progestins for indications other than replacement therapy.
(§2) After ≧4 weeks of dietary stabilization, 2 qualifying blood samples for the lipid profile were drawn approximately 1 week apart after an overnight fast of ≧10 hours. Seated systolic and diastolic blood pressures were recorded at 2 weeks and 1 week before randomization; other risk factors were assessed 1 week before randomization. Baseline lipid and laboratory safety tests, blood pressure and body weight measurements, and an ophthalmologic evaluation (including visual acuity and determination of lenticular opacities) were performed at randomizations. The presence of concurrent disease and the use of concomitant medications were also recorded. When patients returned for clinic visits at weeks 6, 13 and 26, body weight and blood pressure were measured, morning samples for lipid profiles and laboratory safety tests were drawn, and clinical adverse events and concomitant medications were recorded. Drug compliance (by tablet count) was assessed and the ophthalmologic evaluation was repeated at weeks 13 and 26.

[4] = tested on: patients with primary hypercholesterolemia and ≧2 additional risk factors for coronary artery disease; settings: in vivo
Experimental: as §1, §2
Laboratory safety tests were performed by local laboratories and consisted of hematology (hemoglobin, red blood cell count, hematocrit, platelet count, and white blood cell count and differential) and blood chemistries (urea, creatinine, uric acid, calcium, total bilirubin, alkaline phosphatase, aspartate aminotransferase, alanine aminotransferase, γ-glutamyl aminotransferase, total protein, albumin and creatine kinase).
The incidence of adverse events in each treatment group was summarized by body system and individual events. In addition, events predefined by the protocol to be serious, e.g., fatal events or events leading to or prolonging hospitalization, were tabulated. Hematology and biochemistry variables were summarized and analyzed by geometric means and analysis of covariance of change from baseline. Ophthalmologic results were summarized in terms of the number of lenticular opacities present at baseline and at weeks 13 and 26. […] Differences in the incidence of adverse events were typically analyzed by the chi-square test with the Fisher's exact test used for rare events. Results were reported as statistically significant if a 2-sided p value ≦0.05 was attained.

[5] = baseline to Week 26, p<0.001 vs placebo
[6] = end of initial 26 weeks, 20 to 40 mg once daily (average dose 26.5 mg)
[7] = week 13, 20 mg at bedtime, p<0.001 compared with placebo
[8] = first 26 weeks, listed as Pravastatin

For `CC[C@H](C)C(=O)O[C@H]1C[C@H](O)C=C2C=C[C@H](C)[C@H](CC[C@@H](O)C[C@@H](O)CC(=O)O)[C@H]21` [pravastatin], the “medical and surgical events in the coronary and cerebrovascular beds, number” value ([1]; first 26 weeks, 21 in the placebo group) is listed as 1, the “cases of myocardial infarction or unstable angina, number” value ([1]; over the 78 weeks of the study, 16 in the placebo group) is listed as 2 and the “LDL cholesterol, Mean ± SEM” value ([2]; Baseline, n=499) is listed as 4.69 ± 1.05 mmol/L. For the same compound, the “HDL cholesterol, Mean ± SEM” value ([2]; Baseline, n=500) was 1.14 ± 0.35 mmol/L, the “Triglycerides, Mean ± SEM” value ([2]; Baseline, n=520) was 1.77 ± 0.82 mmol/L and the “Total cholesterol, Mean ± SEM” value ([2]; Baseline, n=521) was 6.81 ± 0.78 mmol/L. The “HDL cholesterol, Mean ± SEM” value ([2]; Week 26, n=459) was 1.23 ± 0.37 mmol/L, the “LDL cholesterol, Mean ± SEM” value ([2]; Week 26, n=459) was 3.47 ± 0.74 mmol/L and the “Total cholesterol, Mean ± SEM” value ([2]; Week 26, n=483) was 5.55 ± 0.82 mmol/L. For the same compound, the “Triglycerides, Mean ± SEM” value ([2]; Week 26, n=483) was 1.56 ± 0.74 mmol/L, the “LDL cholesterol, % Change” value [2, 5] was −26.01% and the “Total cholesterol, % Change” value [2, 5] was −18.50%. For the same compound, the “Triglycerides, % Change” value [2, 5] was −11.86%, the “HDL cholesterol, % Change” value ([2]; baseline to Week 26, p<0.005 vs placebo) was 7.90% and the “increase in HDL cholesterol concentrations” value [2, 6] was 8%. The “reduction in LDL cholesterol” value [2, 6] was 26%, the “reduction in total cholesterol” value [2, 6] was 19% and the reduction in triglycerides [2, 6] was 12%. For the same compound, the “elevation in HDL cholesterol” value [2, 7] was 7%, the “reduction in LDL cholesterol” value [2, 7] was 26% and the “reduction in total cholesterol” value [2, 7] was 19%. For the same compound, the reduction in triglycerides [2, 7] was 12%, the “patients who achieved the target cholesterol goal” value ([2]; week 13, goal: total cholesterol decrease >15% from baseline or to <5.2 mmol/liter) was 66% and the “number of patients who achieved the target cholesterol goal” value ([2]; week 13, of 491 patients) was 326. For the same compound, the “patients who attained an LDL cholesterol concentration of ≦3.4 mmol/liter (130 mg/dl)” value ([2]; week 26) was 47%, the “changes in visual acuity (without correction) and incidence of new ocular opacities” value ([3]; both, human, in vivo) was “limited and similar in the 2 treatment groups” and the “Acute congestive heart failure, number” value ([3]; both, human, in vivo, 26 weeks) was 1. For the same compound, the “Central nervous system serious adverse events, Subtotal” value ([3]; both, human, in vivo, 26 weeks) was 0, the “Cerebral infarction, number” value ([3]; both, human, in vivo, 26 weeks) was 0 and the “Other serious adverse events, Subtotal” value ([3]; both, human, in vivo, 26 weeks) was 4. For the same compound, the “Other serious adverse events: Diabetes, number” value ([3]; both, human, in vivo, 26 weeks) was 1, the “Other serious adverse events: Gastrointestinal, number” value ([3]; both, human, in vivo, 26 weeks) was 2 and the “Other serious adverse events: Peripheral arterial disease, number” value ([3]; both, human, in vivo, 26 weeks) was 1. The “Other serious adverse events: Pulmonary, number” value ([3]; both, human, in vivo, 26 weeks) was 0, the “Serious cardiovascular adverse events” value ([3]; both, human, in vivo, 26 weeks) was 0.2% and the “Serious cardiovascular adverse events (Subtotal), number” value ([3]; both, human, in vivo, 26 weeks) was 1. The “Surgery serious adverse events, Subtotal” value ([3]; both, human, in vivo, 26 weeks) was 1, the “Surgery: Abdominal (hernia), number” value ([3]; both, human, in vivo, 26 weeks) was 0 and the “Surgery: Breast, number” value ([3]; both, human, in vivo, 26 weeks) was 0. The “Surgery: Coronary artery bypass graft, number” value ([3]; both, human, in vivo, 26 weeks) was 0, the “Surgery: Joint (knee), number” value ([3]; both, human, in vivo, 26 weeks) was 1 and the “Syncope, number” value ([3]; both, human, in vivo, 26 weeks) was 0. The “Total of all serious adverse events, number of events” value ([3]; both, human, in vivo, 26 weeks) was 6, the “Transient ischemic attack, number” value ([3]; both, human, in vivo, 26 weeks) was 0 and the “Unstable angina leading to hospitalization, number” value ([3]; both, human, in vivo, 26 weeks) was 0. The “cardiovascular clinical adverse events” value ([3]; both, human, in vivo, 26 weeks) was 2.8%, the “cardiovascular clinical adverse events, number” value ([3]; both, human, in vivo, 26 weeks) was 15 and the “patients reporting adverse events” value ([3]; both, human, in vivo, 26 weeks) was 22.6%. For the same compound, the “patients reporting adverse events, number” value ([3]; both, human, in vivo, 26 weeks) was 120, the “patients with serious adverse events” value ([3]; both, human, in vivo, 26 weeks) was 0.9% and the “patients with serious adverse events, number” value ([3]; both, human, in vivo, 26 weeks) was 5. The “patients withdrawn from the study because of an adverse event” value ([3]; both, human, in vivo, 26 weeks) was 4.7%, the “adverse events thought to be related to pravastatin administration, number” value ([3]; both, human, in vivo, 52 weeks) was 1 and the “cases of unstable angina, number” value ([3]; both, human, in vivo, 52 weeks) was 1. The “patients reporting clinical adverse events” value ([3]; both, human, in vivo, 52 weeks) was 18.5%, the “patients reporting clinical adverse events, number” value ([3]; both, human, in vivo, 52 weeks) was 55 and the “patients who withdrew because of adverse events” value ([3]; both, human, in vivo, 52 weeks) was 1.7%. The “episodes of unstable angina, number” value ([3]; both, human, in vivo, 78 weeks) was 1, the “myocardial infarctions, number” value ([3]; both, human, in vivo, 78 weeks) was 1 and the “Sudden cardiac death, number” value ([3]; first 26 weeks) was “none”. The “Sudden cardiac death, number” value [3, 8] was 0, the “Myocardial infarction (fatal and nonfatal), number” value ([3]; first 26 weeks) was “no patient and none” and the “Myocardial infarction (fatal and nonfatal), number” value [3, 8] was 0. The deaths ([3]; first 26 weeks, three placebo-treated patients died) was “no pravastatin-treated patient died”, the “Total of all serious adverse events, number of events” value ([3]; human, in vivo) was “Six” and the “patients who sustained myocardial infarctions, number” value ([3]; human, in vivo) was “One”. The “patients who withdrew because of adverse events, number” value ([3]; human, in vivo) was “Five”, the “patients withdrawn because of angioedema thought to be possibly related to drug therapy, number” value ([3]; human, in vivo) was “One” and the “patients withdrawn because of creatine kinase elevation or musculoskeletal events, number” value ([3]; human, in vivo) was “Three”. The “patients withdrawn from the study because of an adverse event, number” value ([3]; human, in vivo) was “Twenty-five”, the serious cerebrovascular events ([3]; human, in vivo) was “none” and the “total incidence of clinical adverse events, pravastatin vs placebo” value ([3]; human, in vivo) was “no differences”. For the same compound, the deaths ([3]; long-term portion of the trial) was “no deaths”, the “patients with elevations of creatine kinase values to >4 times pretreatment values” ([4]; both, human) was 2.6% and the “patients with elevations of creatine kinase values to >4 times pretreatment values, number” value ([4]; both, human) was 14. For the same compound, the “patients with transient, asymptomatic elevations of hepatic transaminases to >3 times the upper limit of normal” value ([4]; both, human) was 1.1%, the “patients with transient, asymptomatic elevations of hepatic transaminases to >3 times the upper limit of normal, number” value ([4]; both, human) was 6 and the “magnitude of the increases in alanine aminotransferase, aspartate aminotransferase and creatine kinase” value [4] was 3-12%. The “mean level of alanine aminotransferase” value [4] was 16.02 U/liter, the “mean level of aspartate aminotransferase” value [4] was 17.24 U/liter and the “mean level of creatine kinase” value [4] was 70.62 U/liter. For the same compound, the “syndrome of drug-induced myopathy (myalgia with creatine kinase >10 times upper limits of normal)” value [4] was “not observed in any patient”.

From patent publication US6369103B1, “Method for preventing or reducing risk of onset of cardiovascular events employing an HMG CoA reductase inhibitor” (Bristol-Myers Squibb Company, priority 1994, dated 2002)
